# Source: article PMC11243149, “Assessing the Effects of Thiazole-Carboxamide Derivatives on the Biophysical Properties of AMPA Receptor Complexes as a Potential Neuroprotective Agent” (Molecules, 2024)
# Like-named read-outs stand apart in the source and are kept apart here.
# Assays:
# Type in all cases: cell-based
# GluA1 = target: T1, GluA1 (Homo sapiens, UniProt P42261); assay: Whole-cell patch-clamp recordings of homomeric GluA1 AMPAR in transfected HEK293T cells; conditions: for Amplitude (glutamate plus TC compound) / Amplitude, applying glutamate alone after TC compound / IC50 / A/AI / t deact / t des: GluA1; for Amplitude (glutamate plus TC compound): 10 mM glutamate + TC compound (12 µM optimal concentration), HEK293T, -60 mV, pH 7.4, 22 °C, mean ± SEM; for Amplitude (glutamate plus TC compound) / Amplitude, applying glutamate alone after TC compound: n = 10; for Amplitude, applying glutamate alone after TC compound: 10 mM glutamate alone after 20 s wash following the TC compound; for A/AI: ratio of current with glutamate alone (A) to inhibited current after TC compound (AI); for t deact: weighted tau of deactivation, 10 mM glutamate for 1 ms, glutamate alone 2.1±0.1; for t deact / t des: with TC compound; for t des: weighted tau of desensitization, 10 mM glutamate 500 ms, glutamate alone 2.5±0.1; for influence on τw des: GluA1 subunit
# T1 construct: expressed in transfected cells; host or cells: HEK293T
# T1 sequence (P42261 19-906 isoform P42261-2 limits assumed, species assumed): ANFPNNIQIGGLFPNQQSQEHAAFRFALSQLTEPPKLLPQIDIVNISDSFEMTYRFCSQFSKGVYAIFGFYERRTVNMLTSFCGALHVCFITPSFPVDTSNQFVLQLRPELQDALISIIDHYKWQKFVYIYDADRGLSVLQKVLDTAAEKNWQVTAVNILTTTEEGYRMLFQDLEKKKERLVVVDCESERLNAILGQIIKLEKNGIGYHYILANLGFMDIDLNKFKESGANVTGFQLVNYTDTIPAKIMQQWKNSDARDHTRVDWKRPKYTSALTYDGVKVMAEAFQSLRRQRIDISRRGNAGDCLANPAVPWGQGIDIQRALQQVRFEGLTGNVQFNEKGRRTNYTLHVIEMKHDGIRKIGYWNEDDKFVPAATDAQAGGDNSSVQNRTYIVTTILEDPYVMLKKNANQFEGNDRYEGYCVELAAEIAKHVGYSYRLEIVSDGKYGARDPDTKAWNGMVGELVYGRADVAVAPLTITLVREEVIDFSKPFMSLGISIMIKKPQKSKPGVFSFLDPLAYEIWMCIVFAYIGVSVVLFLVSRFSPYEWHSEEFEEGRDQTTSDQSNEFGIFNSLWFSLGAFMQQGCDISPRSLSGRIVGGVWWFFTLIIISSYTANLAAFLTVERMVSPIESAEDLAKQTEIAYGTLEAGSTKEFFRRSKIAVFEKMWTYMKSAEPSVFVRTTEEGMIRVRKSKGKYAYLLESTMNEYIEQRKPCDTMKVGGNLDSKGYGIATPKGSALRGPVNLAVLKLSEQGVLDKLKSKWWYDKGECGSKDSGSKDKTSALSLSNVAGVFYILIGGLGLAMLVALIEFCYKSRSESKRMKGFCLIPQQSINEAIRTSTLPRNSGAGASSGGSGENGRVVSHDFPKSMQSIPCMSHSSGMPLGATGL
# Experimental: (§1) The effect of five TC compounds on whole-cell currents of four AMPAR subunits (GluA1, GluA1/2, GluA2, and GluA2/3) was investigated using transfected HEK293T cells. Each compound was applied separately to each subunit, with experiments conducted on 8–10 cells per condition to ensure reproducibility. […] At a glutamate concentration of 10 mM and a 500 ms protocol, approximately 95% of AMPAR channels were open. The A/AI ratio was calculated to compare the results, where A represents normalized current readings and AI indicates the inhibited current following TC compound exposure. […] Following closely, TC-1 inhibited the tested subunits by 5-fold.
# (§2) The IC50 values were examined using GraphPad Prism software 9.5.0.730 (x64) (Table S6), which confirmed these findings. The IC50 values of TC substances were calculated by standardizing the peak current amplitudes using data obtained from 8–10 cells. Following a 500 ms exposure to the compounds, the cells were rinsed with glutamate for 20 s. Next, a solution containing just glutamate at a concentration of 10 mM was administered, and the resulting immediate induced electrical current was measured and documented (Figure 3).
# (§3) In addition, an evaluation was conducted on the deactivation rates (τw deact) of all the examined chemicals to investigate their impact on the kinetics of deactivation. The chemicals were assessed for their effect on the deactivation kinetics of AMPAR subunits by briefly administering 10 mM glutamate for 1 ms to begin currents. This experimental setup allowed for the observation of τw deact under controlled conditions. […] TC-5 induced an approximately 2-fold increase in τw deact across all four tested subunits. […] These findings highlight the differential impact of TC compounds on deactivation kinetics across AMPAR subunits, shedding light on their potential neuroprotective mechanisms.
# (§4) The flip isoform was uniformly employed across all AMPAR subunits in this study. These subunits were subcloned into the pRK vector and expressed in Human Embryonic kidney cells sourced (Sigma, München, Germany). HEK293T cells were grown in Dulbecco Modified Eagle Medium (DMEM) (Sigma, München, Germany) containing 10% FBS (fetal bovine serum), 0.1 mg/mL streptomycin, and 1 mM sodium pyruvate (Biological Industries; Beit-Haemek, Israel). HEK293T cells were incubated at 37 °C and 5% CO2 was supplemented to the medium. It was subcultured twice a week until cells reached pass #20. The transfection reagent used was either jetPRIME (Polyplus: New York, NY, USA) or Lipofectamine 2000 (Invitrogen; San Diego, CA, USA). Cells were kept for 36 h. after transfection in 12-well plates. Then, they were replated on coverslips coated with Laminin (1 mg/mL; Sigma, Germany) for electrophysiology recordings. Cells were then seeded in Petri dishes in DMEM supplemented with 10% fetal calf serum and antibiotics and maintained in a humidified incubator at 37 °C and 5% CO2. Highly fluorescent cells were identified and selected for recording post-transfection.
# (§5) HEK293T cells were recorded for 36–48 h, at a temperature of 22 °C, with a membrane potential of −60 mV. HEK293T cells were recorded 36–48 h after transfection using IPA (Integrated Patch Amplifier) via the […], at a temperature of 22 °C, with a membrane potential of −60 mV. SutterPatch Software v. 1.1.1 (Sutter Instruments, Novato, CA, USA) was used to digitize membrane currents for a short period. The sampling frequency was set to 10 kHz, and the low-pass filter was set to 2 kHz. Borosilicate glass was used to fabricate the patch electrodes with a resistance of 2–4 MΩ. The extracellular solution contained the following (values are in mM): 150 NaCl, 2.8 KCl, 0.5 MgCl2, 2 CaCl2, and 10 HEPES, adjusted to pH 7.4 with NaOH. The pipette solution contained the following (values are in mM): 110 CsF, 30 CsCl, 4 NaCl, 0.5 CaCl2, 10 […], and 10 HEPES, adjusted to pH 7.2 with CsOH. […]
# GluA1/2 = target: T2, GluA1/2 (Homo sapiens, UniProt P42261+P42262); assay: Whole-cell patch-clamp recordings of heteromeric GluA1/2 AMPAR in transfected HEK293T cells; conditions: for Amplitude (glutamate plus TC compound): 10 mM glutamate + TC compound (12 µM optimal concentration), HEK293T, -60 mV, pH 7.4, 22 °C, mean ± SEM; for Amplitude (glutamate plus TC compound) / Amplitude, applying glutamate alone after TC compound: n = 10; for Amplitude, applying glutamate alone after TC compound: 10 mM glutamate alone after 20 s wash following the TC compound; for A/AI: ratio of current with glutamate alone (A) to inhibited current after TC compound (AI); for t deact: weighted tau of deactivation, 10 mM glutamate for 1 ms, glutamate alone 2.5±0.3; for t deact / t des: with TC compound; for t des: weighted tau of desensitization, 10 mM glutamate 500 ms, glutamate alone 5.2±0.5
# T2 construct: expressed in transfected cells; host or cells: HEK293T
# T2 sequence (P42261 19-906 isoform P42261-2 limits assumed): as the sequence (P42261 19-906 isoform P42261-2 limits assumed, species assumed) above
# T2 sequence (P42262 25-883 isoform P42262-2 limits assumed): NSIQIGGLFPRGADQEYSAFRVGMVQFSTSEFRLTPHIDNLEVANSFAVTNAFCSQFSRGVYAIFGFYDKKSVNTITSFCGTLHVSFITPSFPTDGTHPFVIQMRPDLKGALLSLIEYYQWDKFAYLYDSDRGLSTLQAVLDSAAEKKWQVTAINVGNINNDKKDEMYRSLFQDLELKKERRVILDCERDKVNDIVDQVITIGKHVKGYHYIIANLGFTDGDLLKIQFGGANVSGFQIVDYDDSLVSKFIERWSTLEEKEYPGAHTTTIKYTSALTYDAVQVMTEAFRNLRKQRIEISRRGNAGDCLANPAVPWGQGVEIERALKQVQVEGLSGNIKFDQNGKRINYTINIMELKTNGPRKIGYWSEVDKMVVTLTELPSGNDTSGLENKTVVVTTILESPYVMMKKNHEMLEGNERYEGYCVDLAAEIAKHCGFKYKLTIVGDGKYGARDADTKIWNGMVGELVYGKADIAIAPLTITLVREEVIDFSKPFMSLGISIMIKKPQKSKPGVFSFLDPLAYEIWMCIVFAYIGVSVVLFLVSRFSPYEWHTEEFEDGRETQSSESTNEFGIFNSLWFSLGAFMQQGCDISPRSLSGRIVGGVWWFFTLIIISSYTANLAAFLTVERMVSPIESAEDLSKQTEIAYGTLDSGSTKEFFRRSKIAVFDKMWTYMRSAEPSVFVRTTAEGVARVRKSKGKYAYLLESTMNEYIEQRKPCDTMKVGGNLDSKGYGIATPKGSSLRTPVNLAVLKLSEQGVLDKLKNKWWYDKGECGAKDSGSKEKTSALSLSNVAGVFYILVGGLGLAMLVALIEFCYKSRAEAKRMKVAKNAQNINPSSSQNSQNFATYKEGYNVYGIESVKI
# Experimental: as §1, §2, §3, §4, §5
# GluA2 = target: T3, GluA2 (Homo sapiens, UniProt P42262); assay: Whole-cell patch-clamp recordings of homomeric GluA2 AMPAR in transfected HEK293T cells; conditions: for Amplitude (glutamate plus TC compound): 10 mM glutamate + TC compound (12 µM optimal concentration), HEK293T, -60 mV, pH 7.4, 22 °C, mean ± SEM; for Amplitude (glutamate plus TC compound) / Amplitude, applying glutamate alone after TC compound: n = 10; for Amplitude, applying glutamate alone after TC compound: 10 mM glutamate alone after 20 s wash following the TC compound; for A/AI: ratio of current with glutamate alone (A) to inhibited current after TC compound (AI); for t deact: weighted tau of deactivation, 10 mM glutamate for 1 ms, glutamate alone 2.3±0.1; for t deact / t des: with TC compound; for t des: weighted tau of desensitization, 10 mM glutamate 500 ms, glutamate alone 2.6±0.1
# T3 construct: expressed in transfected cells; host or cells: HEK293T
# T3 sequence (P42262 25-883 isoform P42262-2 limits assumed, species assumed): as the sequence (P42262 25-883 isoform P42262-2 limits assumed) above
# Experimental: as §1, §2, §3, §4, §5
# GluA2/3 = target: T4, GluA2/3 (Homo sapiens, UniProt P42262+P42263); assay: Whole-cell patch-clamp recordings of heteromeric GluA2/3 AMPAR in transfected HEK293T cells; conditions: for Amplitude (glutamate plus TC compound): 10 mM glutamate + TC compound (12 µM optimal concentration), HEK293T, -60 mV, pH 7.4, 22 °C, mean ± SEM; for Amplitude (glutamate plus TC compound) / Amplitude, applying glutamate alone after TC compound: n = 10; for Amplitude, applying glutamate alone after TC compound: 10 mM glutamate alone after 20 s wash following the TC compound; for A/AI: ratio of current with glutamate alone (A) to inhibited current after TC compound (AI); for t deact: weighted tau of deactivation, 10 mM glutamate for 1 ms, glutamate alone 2.6±0.3; for t deact / t des: with TC compound; for t des: weighted tau of desensitization, 10 mM glutamate 500 ms, glutamate alone 2.7±0.2
# T4 construct: expressed in transfected cells; host or cells: HEK293T
# T4 sequence (P42262 25-883 isoform P42262-2 limits assumed): as above
# T4 sequence (P42263 29-894 isoform P42263-2 limits assumed): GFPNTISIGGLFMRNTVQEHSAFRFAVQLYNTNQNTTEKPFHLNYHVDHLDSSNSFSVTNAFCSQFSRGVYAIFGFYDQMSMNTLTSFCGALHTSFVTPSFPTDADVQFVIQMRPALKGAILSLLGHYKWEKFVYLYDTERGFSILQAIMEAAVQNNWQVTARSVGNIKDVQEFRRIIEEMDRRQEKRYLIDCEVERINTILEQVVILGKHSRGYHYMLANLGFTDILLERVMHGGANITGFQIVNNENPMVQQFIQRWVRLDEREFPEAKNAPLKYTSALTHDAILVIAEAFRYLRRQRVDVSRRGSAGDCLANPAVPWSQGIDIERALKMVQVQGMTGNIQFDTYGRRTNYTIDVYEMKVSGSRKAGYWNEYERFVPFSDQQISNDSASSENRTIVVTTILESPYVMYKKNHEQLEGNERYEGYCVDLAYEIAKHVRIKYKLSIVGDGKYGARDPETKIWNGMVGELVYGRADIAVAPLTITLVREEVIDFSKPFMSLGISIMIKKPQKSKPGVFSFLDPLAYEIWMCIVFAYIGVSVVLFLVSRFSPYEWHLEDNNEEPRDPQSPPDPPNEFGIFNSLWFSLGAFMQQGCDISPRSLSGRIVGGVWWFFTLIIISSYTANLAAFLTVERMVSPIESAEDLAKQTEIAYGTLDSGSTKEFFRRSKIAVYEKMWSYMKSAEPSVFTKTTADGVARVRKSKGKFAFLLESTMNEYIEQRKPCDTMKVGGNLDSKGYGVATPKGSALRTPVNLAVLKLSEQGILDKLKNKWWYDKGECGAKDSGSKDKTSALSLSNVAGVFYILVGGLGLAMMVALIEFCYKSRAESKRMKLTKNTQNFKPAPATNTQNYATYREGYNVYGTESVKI
# Experimental: as §1, §2, §3, §4, §5
# [1] = Table S6, peak current amplitudes, 8-10 cells, GraphPad Prism fit, read-out: IC50
# [2] = Table S6, read-out: Log IC50 (converted)
SMILES,Amplitude (glutamate plus TC compound) (GluA1) [pA],"Amplitude, applying glutamate alone after TC compound (GluA1) [pA]",IC50 (GluA1; [1]) [µM],IC50 (GluA1; [2]) [µM],A/AI (GluA1),t deact (GluA1) [ms],t des (GluA1) [ms],Amplitude (glutamate plus TC compound) (GluA1/2) [pA],"Amplitude, applying glutamate alone after TC compound (GluA1/2) [pA]",IC50 (GluA1/2; [1]) [µM],IC50 (GluA1/2; [2]) [µM],A/AI (GluA1/2),t deact (GluA1/2) [ms],t des (GluA1/2) [ms],Amplitude (glutamate plus TC compound) (GluA2) [pA],"Amplitude, applying glutamate alone after TC compound (GluA2) [pA]",IC50 (GluA2; [2]) [µM],A/AI (GluA2),t deact (GluA2) [ms],t des (GluA2) [ms],also measured
COc1ccc(-c2nc(C(=O)Nc3ccc(OC)c(OC)c3)cs2)cc1 [TC-1],177±20,848±82,3.42,3.39,4.91±0.1,5.3 ± 0.4,1.3 ± 0.1,126±12,604±62,3.36,3.39,4.98±0.06,5.8 ± 0.4,3.9 ± 0.4,233±20,1137±97,3.31,5.03±0.04,5.9 ± 0.2,1.1 ± 0.1,"decrease in τw des (GluA1/2): around 1.3 fold; IC50 (GluA2; read-out: IC50): 3.3 µM; Amplitude (glutamate plus TC compound) (GluA2/3): 102±13 pA; Amplitude, applying glutamate alone after TC compound (GluA2/3): 491±61 pA; IC50 (GluA2/3; [1]): 3.38 µM; IC50 (GluA2/3; [2]): 3.39 µM; A/AI (GluA2/3): 4.95±0.19; t deact (GluA2/3): 5.6 ± 0.4 ms; t des (GluA2/3): 1.2 ± 0.3 ms"
COc1ccc(-c2nc(C(=O)Nc3ccccc3)cs2)cc1 [TC-3],287±38,799±95,5.73,5.75,2.97±0.03,3.0 ± 0.2,2.0 ± 0.1,197±24,565±72,5.64,5.62,3.09±0.02,3.3 ± 0.3,4.2 ± 0.3,363±37,1078±112,5.5,3.17±0.02,3.5 ± 0.3,1.7 ± 0.1,"influence on τw des (GluA1): negligible; IC50 (GluA2; [1]): 5.5 µM; Amplitude (glutamate plus TC compound) (GluA2/3): 159±25 pA; Amplitude, applying glutamate alone after TC compound (GluA2/3): 456±76 pA; IC50 (GluA2/3; [1]): 5.53 µM; IC50 (GluA2/3; [2]): 5.5 µM; A/AI (GluA2/3): 3.06±0.07; t deact (GluA2/3): 3.4 ± 0.4 ms; t des (GluA2/3): 1.8 ± 0.2 ms"
COc1ccc(-c2nc(C(=O)Nc3ccc(C(C)(C)C)cc3)cs2)cc1 [TC-4],331±50,816±114,5.88,5.89,2.53±0.02,2.9 ± 0.1,2.1 ± 0.1,221±26,609±77,5.78,5.75,2.86±0.02,3.2 ± 0.4,4.4 ± 0.3,393±43,1110±101,5.62,2.91±0.07,3.4 ± 0.2,1.8 ± 0.1,"influence on τw des (GluA1): negligible; IC50 (GluA2; [1]): 5.6 µM; Amplitude (glutamate plus TC compound) (GluA2/3): 183±36 pA; Amplitude, applying glutamate alone after TC compound (GluA2/3): 460±95 pA; IC50 (GluA2/3; [1]): 5.64 µM; IC50 (GluA2/3; [2]): 5.62 µM; A/AI (GluA2/3): 2.59±0.05; t deact (GluA2/3): 3.3 ± 0.3 ms; t des (GluA2/3): 1.9 ± 0.2 ms"
